Source: PubChem BioAssay (NCI)
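Cells were grown in 96-well plates and exposed to each compound for 48 hours at five concentrations; endpoints were interpolated linearly between bracketing concentrations, or set to the highest concentration if not reached. Abbreviation: GI50, concentration required for 50% inhibition of growth. The concentration for full growth arrest is given as TGI.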

Assays:
Test in all cases: NCI anticancer screen, dose series, 48 h
HT29 colon = system: HT29 colon
A549 NSCLC = system: A549 NSCLC
SF-539 CNS = system: SF-539 CNS
SF-268 CNS = system: SF-268 CNS
MCF7 breast = system: MCF7 breast
HOP-92 NSCLC = system: HOP-92 NSCLC
NCI-H522 lung = system: NCI-H522 lung
HCT-15 colon = system: HCT-15 colon
NCI/ADR-RES ovarian = system: NCI/ADR-RES ovarian
RXF 393 renal = system: RXF 393 renal

| Compound | TGI (HT29 colon) [µM] | TGI (A549 NSCLC) [µM] | TGI (SF-539 CNS) [µM] | TGI (SF-268 CNS) [µM] | TGI (MCF7 breast) [µM] | TGI (HOP-92 NSCLC) [µM] | TGI (NCI-H522 lung) [µM] | TGI (HCT-15 colon) [µM] | TGI (NCI/ADR-RES ovarian) [µM] | TGI (RXF 393 renal) [µM] | GI50 (HT29 colon) [µM] | GI50 (A549 NSCLC) [µM] | GI50 (SF-539 CNS) [µM] | GI50 (SF-268 CNS) [µM] | GI50 (MCF7 breast) [µM] | GI50 (HOP-92 NSCLC) [µM] | GI50 (NCI-H522 lung) [µM] | GI50 (HCT-15 colon) [µM] | GI50 (NCI/ADR-RES ovarian) [µM] | GI50 (RXF 393 renal) [µM] |
| --- | --- | --- | --- | --- | --- | --- | --- | --- | --- | --- | --- | --- | --- | --- | --- | --- | --- | --- | --- | --- |
| Clc1ccc(Cc2nc3cc4ccccc4cc3[nH]2)cc1Cl | 28.5 | 68.9 | 41.3 | 62.7 | 67.3 | 30.6 | 29 | > 100 | 96.4 | 40.2 |  |  |  |  |  |  |  |  |  |  |
| O=C1C=C2SC3C[C@@]24CC1(O)[N+]1=c2c4c(c(O)c4c2=C(C=N4)CC1)N3 | 1.01 | 4.11 | 2.85 | 2.19 | 0.972 | 2.67 | 0.789 | 3.92 | 2.78 | 2.71 |  |  |  |  |  |  |  |  |  |  |
| COc1ccc(/C=C(\C#N)c2ccccn2)cc1OC | > 100 | > 100 | > 100 | > 100 | 72.6 | 48.7 | > 100 | > 100 | 55.7 | > 100 |  |  |  |  |  |  |  |  |  |  |
| COC(=O)C(=O)C(C(=O)C(=O)Nc1cc(C)ccc1C)c1nc2ccccc2[nH]c1=O (stereo not given) | > 100 | > 100 | > 100 | > 100 | > 100 | > 100 | > 100 | > 100 | > 100 | > 100 |  |  |  |  |  |  |  |  |  |  |
| CCCNC(=O)c1cc(OC)c(OC)cc1NC(=O)C12CC3CC(CC(C3)C1)C2 | 32.2 | 35.3 | 46.9 | 35 | 64.2 | 34.6 | 30 | 32.7 | 48.3 | 19.3 |  |  |  |  |  |  |  |  |  |  |
| C=CCSC1=N/C(=C\c2ccc(C)cc2)C(=O)N1CC=C | 34.1 | 65.4 | > 100 | > 100 | 55.5 | 57.5 | > 100 | > 100 | > 100 | 43.2 |  |  |  |  |  |  |  |  |  |  |
| CC(C)C1OC(=O)C(Cc2ccccc2)N(C)C(=O)C(C(C)C)OC(=O)C(Cc2ccccc2)N(C)C(=O)C(C(C)C)OC(=O)C(Cc2ccccc2)N(C)C1=O (stereo not given) | 2.07 | 1.87 | 3.47 | 3.2 | 1.79 | 1.3 | 2.12 | 2.61 | 2.36 | 2.33 |  |  |  |  |  |  |  |  |  |  |
| Cc1n[nH]c(=O)c2c3c([nH]c12)-c1ccccc1C3 | > 100 | > 100 | > 100 | > 100 | > 100 | > 100 | > 100 | > 100 | > 100 | > 100 |  |  |  |  |  |  |  |  |  |  |
| O=C1c2cccc3cc([N+](=O)[O-])cc(c23)C(=O)N1c1ccc(OCCN2CCCC2)cc1 | 28.3 | 20.6 | 29.5 | > 100 | 38.3 | > 100 | 31.7 | 44.5 | > 100 | 37 |  |  |  |  |  |  |  |  |  |  |
| NS(=O)(=O)c1ccc(Nc2c3ccccc3nc3c(C(=O)NC(CO)(CO)CO)cccc23)cc1 | 0.45 | 0.314 | 0.407 | 0.486 | 0.106 | 0.389 | 0.306 | 0.948 | > 1 | 0.386 |  |  |  |  |  |  |  |  |  |  |
| Cc1ccc2c(c1)CC1(Cc3cc(C)ccc3C1=O)C2=O | > 100 | > 100 | > 100 | > 100 | > 100 | > 100 | > 100 | > 100 | > 100 | > 100 |  |  |  |  |  |  |  |  |  |  |
| O=C(c1ccccc1)c1nn(-c2cccc(Cl)c2)c2nc3nc(-c4ccccc4)cc(=O)n3nc12 | > 25 | > 25 | > 25 | > 25 | > 25 | > 25 | > 25 | > 25 | > 25 | > 25 | > 25 | > 25 | > 25 | > 25 | > 25 | > 25 | > 25 | > 25 | > 25 | > 25 |
| C=CCCCCCCCCCOC1C=CC(O)C(CO)O1 (stereo not given) | 46.4 | > 100 | > 100 | > 100 | > 100 | > 100 | > 100 | > 100 | > 100 | > 100 |  |  |  |  |  |  |  |  |  |  |
| Cc1ccc(NC(c2ccccc2)P(=O)(c2ccccc2)c2ccccc2)cc1 (stereo not given) | > 100 | > 100 | > 100 | > 100 | > 100 | 67.4 | > 100 | > 100 | > 100 | > 100 |  |  |  |  |  |  |  |  |  |  |
| Cc1cccc(NC(=S)NNC(=O)c2cc(-c3ccccc3)nc3ccccc23)c1 | > 100 | 70.7 | 58.9 | > 100 | 57.2 | 68.5 | 85.8 | > 100 | > 100 | 68.3 |  |  |  |  |  |  |  |  |  |  |
